According to US20100120798A1, “SUBSTITUTED PIPERIDINES CONTAINING A HETEROARYLAMIDE OR HETEROARYLPHENYL MOIETY” (ASTEX THERAPEUTICS LIMITED, priority 2006, published 2010):

Assay: In vitro MDA-MB-468 human breast adenocarcinoma GSK-3 phosphorylation assay
Type: cell-based
Conditions: mean IC50, MDA-MB-468 cells, 2 hours with compound, phospho-GSK-3β
Excerpt: This assay determines the ability of test compounds to inhibit phosphorylation of Serine-9 residue in Glycogen Synthase Kinase-3beta (GSK-3β) as a surrogate marker of cellular PKB (Akt) activity, as assessed using Acumen Explorer Fluorescent Plate-Reader technology. A MDA-MB-468 human breast adenocarcinoma cell line (LGC Promochem, Teddington, Middlesex, UK, Catalogue No. HTB-132) was routinely maintained in Dulbecco's modified Eagle's growth medium (DMEM; Invitrogen Limited, Paisley, UK Catalogue No. 11966-025) containing 10% heat-inactivated foetal calf serum (FCS; Sigma, Poole, Dorset, UK, Catalogue No. F0392) and 1% L-glutamine (Gibco, Catalogue No. 25030-024) at 37° C. with 5% CO2 up to a confluency of 70-90%.
For the phosphorylation assay, the cells were detached from the culture flask using Trypsin-EDTA (Invitrogen Limited, Catalogue No. 25300-062) and seeded into the wells of a black transparent-bottom Corning Costar Polystyrene 96 well plate (Fisher Scientific UK, Loughborough, Leicestershire, UK; Catalogue No. 3904 and DPS-130-020K) at a density of 5000 cells per well in 100 μl of complete growth media. The cells were incubated overnight at 37° C. with 5% CO2 to allow them to adhere.
On day 2, the cells were treated with test compounds and incubated for 2 hours at 37° C. with 5% CO2. Test compounds were prepared as 10 mM stock solutions in DMSO and dosed directly to required concentration into test wells using non-contact (acoustic dispensing of multiple 2.5 nl droplets directly into assay wells) ECHO dosing technology (Labcyte Inc. Sunnyvale, Calif., USA). Each plate contained control wells without test compound.
20 μl of fixing buffer (Phosphate Buffered Saline (PBS) containing 10% formaldehyde; Sigma; Catalogue No. F1635) was then added to each well to give a final well concentration 1.6%. Plates were then incubated for 30 minutes at room temperature prior to the fixative being removed. Each well was washed once with 250 μl of PBS and then 50 μl PBS added to each well. PBS was then aspirated and cells permeabilised and blocked by incubating each well with 50 μl of permeabilisation/blocking buffer (PBS containing 0.5% Tween 20 (Sigma; Catalogue No. P5927) and 5% Marvel Milk Powder (Andrews Pharmacy Ltd, Macclesfield, Cheshire, UK; Catalogue No. APC100199)) for 1 hour at room temperature prior to staining.
Following removal of Perm/Block buffer, 50 μl of primary anti-phospho-GSK-3β antibody (Cell Signalling Technology (New England Biolabs (Uk) Ltd.), Hitchin, Hertfordshire, UK; Catalogue No. 9336 diluted 1:400 in Blocking buffer (PBS containing 5% Marvel and 0.05% Tween/Polysorbate 20) was added to each well and incubated overnight at 4° C.
Each well was washed three times in 250 μl of wash buffer (PBS containing 0.05% polysorbate 20), and cells incubated for 1 hour at room temperature with 50 μl of secondary fluorescently-labelled anti-rabbit Alexa Fluor 488 antibody (Molecular Probes, Invitrogen Limited, Catalogue No. A11008) diluted 1:750 in blocking buffer. Plates were washed three times in 250 μl of wash buffer and stored containing 50 μl of PBS at 4° C. until required.
Plates were analysed using an Acumen Explorer Plate-reader to quantify level of fluorescent signal that represents quantity of phosphorylated-GSK-3β.
IC50 calculation—IC50 is the concentration of compound required to give 50% effect over the range of activity affected by the compound, between maximum (no compound) and minimum (excess level of compound) response control data. IC50 values were determined by fitting background corrected, dose response assay data to a 4 parameter logistic curve fit equation model with the minimum response set to zero. This was done using an in-house developed algorithm within the Origin graphing software package (OriginLab Corporation, Northampton, Mass., USA). […]

SMILES | IC50 [nM]
Cn1cc(-c2cccc(C3(CCCN)CCN(c4ncnc5[nH]cnc45)CC3)c2)cn1 [Example 34, 3-(4-(3-(1-methyl-1H-pyrazol-4-yl)phenyl)-1-(9H-purin-6-yl)piperidin-4-yl)propan-1-amine] | > 2000
Cn1cc(-c2cccc(C3(CNC(=O)CN)CCN(c4ncnc5[nH]cnc45)CC3)c2)cn1 [Example 35, 2-amino-N-((4-(3-(1-methyl-1H-pyrazol-4-yl)phenyl)-1-(9H-purin-6-yl)piperidin-4-yl)methyl)acetamide] | 1300
CN(C)CC(=O)NCC1(c2cccc(-c3cnn(C)c3)c2)CCN(c2ncnc3[nH]cnc23)CC1 [Example 36, 2-(dimethylamino)-N-((4-(3-(1-methyl-1H-pyrazol-4-yl)phenyl)-1-(9H-purin-6-yl)piperidin-4-yl)methyl)acetamide] | 2800
Cn1cc(-c2cccc(C3(C(N)=O)CCN(c4ncnc5[nH]cnc45)CC3)c2)cn1 [Example 37, 4-[3-(1-methylpyrazol-4-yl)phenyl]-1-(9H-purin-6-yl)piperidine-4-carboxamide] | > 30000
Cc1csc(CNC(=O)C2(N)CCN(c3ncnc4[nH]ccc34)CC2)n1 [Example 40, 4-Amino-N-[(4-methyl-1,3-thiazol-2-yl)methyl]-1-(7H-pyrrolo[2,3-d]pyrimidin-4-yl)piperidine-4-carboxamide] | 3400
NC1(C(=O)NCc2cnc3ccccc3c2)CCN(c2ncnc3[nH]ccc23)CC1 [Example 41, 4-Amino-1-(7H-pyrrolo[2,3-d]pyrimidin-4-yl)-N-(quinolin-3-ylmethyl)piperidine-4-carboxamide] | 4100
NC1(C(=O)NCc2csc(-c3ccccc3)n2)CCN(c2ncnc3[nH]ccc23)CC1 [Example 42, 4-Amino-N-[(2-phenyl-1,3-thiazol-4-yl)methyl]-1-(7H-pyrrolo[2,3-d]pyrimidin-4-yl)piperidine-4-carboxamide] | 7100
NC1(C(=O)NCc2ccncc2)CCN(c2ncnc3[nH]ccc23)CC1 [Example 43, 4-Amino-N-(pyridin-4-ylmethyl)-1-(7H-pyrrolo[2,3-d]pyrimidin-4-yl)piperidine-4-carboxamide] | > 19000
NC1(C(=O)NCc2cc(-c3ccc(Cl)cc3)no2)CCN(c2ncnc3[nH]ccc23)CC1 [Example 44, 4-amino-N-[[3-(4-chlorophenyl)-1,2-oxazol-5-yl]methyl]-1-(7H-pyrrolo[2,3-d]pyrimidin-4-yl)piperidine-4-carboxamide] | 19000
Cn1cc(CNC(=O)C2(N)CCN(c3ncnc4[nH]ccc34)CC2)cn1 [Example 45, 4-amino-N-[(1-methylpyrazol-4-yl)methyl]-1-(7H-pyrrolo[2,3-d]pyrimidin-4-yl)piperidine-4-carboxamide] | > 19000
NC1(C(=O)NCc2cnc(-c3ccccc3)s2)CCN(c2ncnc3[nH]ccc23)CC1 [Example 46, 4-Amino-1-(7H-pyrrolo[2,3-d]pyrimidin-4-yl)-piperidine-4-carboxylic acid (2-phenyl-thiazol-5-ylmethyl)-amide] | 14000
Cc1ccsc1CNC(=O)C1(N)CCN(c2ncnc3[nH]ccc23)CC1 [Example 47, 4-Amino-1-(7H-pyrrolo[2,3-d]pyrimidin-4-yl)-piperidine-4-carboxylic acid (3-methyl-thiophen-2-ylmethyl)-amide] | 3900
Cc1cc(CNC(=O)C2(N)CCN(c3ncnc4[nH]ccc34)CC2)on1 [Example 49, 4-Amino-1-(7H-pyrrolo[2,3-d]pyrimidin-4-yl)-piperidine-4-carboxylic acid (3-methyl-isoxazol-5-ylmethyl)-amide] | 4200
NC1(C(=O)Nc2cccc(-c3nc4ccccc4o3)c2)CCN(c2ncnc3[nH]ccc23)CC1 [Example 52, 4-Amino-1-(7H-pyrrolo[2,3-d]pyrimidin-4-yl)-piperidine-4-carboxylic acid (3-benzooxazol-2-yl-phenyl)-amide] | 5100

Stronger by IC50, values ahead:

IC50 [nM] | SMILES
27 | Cc1c[nH]c2ncnc(N3CCC(CN)(c4cccc(-c5cnn(C)c5)c4)CC3)c12 [Example 30, (4-(3-(1-methyl-1H-pyrazol-4-yl)phenyl)-1-(5-methyl-7H-pyrrolo[2,3-d]pyrimidin-4-yl)piperidin-4-yl)methanamine]
22 | Cn1cc(-c2cccc(C3(CN)CCN(c4ncnc5[nH]nc(Br)c45)CC3)c2)cn1 [Example 31, (1-(3-Bromo-1H-pyrazolo[3,4-d]pyrimidin-4-yl)-4-(3-(1-methyl-1H-pyrazol-4-yl)phenyl)piperidin-4-yl)methanamine]
290 | CN(C)CC1(c2cccc(-c3cnn(C)c3)c2)CCN(c2ncnc3[nH]cnc23)CC1 [Example 32, N,N-dimethyl-1-(4-(3-(1-methyl-1H-pyrazol-4-yl)phenyl)-1-(9H-purin-6-yl)piperidin-4-yl)methanamine]
740 | Cn1cc(-c2cccc(C3(CN4CCCC4)CCN(c4ncnc5[nH]cnc45)CC3)c2)cn1 [Example 33, 6-(4-(3-(1-methyl-1H-pyrazol-4-yl)phenyl)-4-(pyrrolidin-1-ylmethyl)piperidin-1-yl)-9H-purine]
300 | NC1(C(=O)NCc2ccc(Cl)s2)CCN(c2ncnc3[nH]ccc23)CC1 [Example 39, 4-Amino-N-[(5-chlorothiophen-2-yl)methyl]-1-(7H-pyrrolo[2,3-d]pyrimidin-4-yl)piperidine-4-carboxamide]
380 | NC1(C(=O)NCc2cc(Br)no2)CCN(c2ncnc3[nH]ccc23)CC1 [Example 48, 4-Amino-1-(7H-pyrrolo[2,3-d]pyrimidin-4-yl)-piperidine-4-carboxylic acid (3-bromo-isoxazol-5-ylmethyl)-amide]
700 | NC1(C(=O)NCc2cc3ccccc3[nH]2)CCN(c2ncnc3[nH]ccc23)CC1 [Example 50, 4-Amino-1-(7H-pyrrolo[2,3-d]pyrimidin-4-yl)-piperidine-4-carboxylic acid (1H-indol-2-ylmethyl)-amide]
< 17 | Cn1cc(-c2cccc(C3(CN)CCN(c4ncnc5[nH]ccc45)CC3)c2)cn1 [Example 51, (4-(3-(1-Methyl-1H-pyrazol-4-yl)phenyl)-1-(7H-pyrrolo[2,3-d]pyrimidin-4-yl)piperidin-4-yl)methanamine]
200 | Cc1cnc(NC(=O)C2(CN)CCN(c3ncnc4[nH]ccc34)CC2)s1 [Example 59, 4-(aminomethyl)-N-(5-methylthiazol-2-yl)-1-(7H-pyrrolo[2,3-d]pyrimidin-4-yl)piperidine-4-carboxamide]
330 | NCC1(C(=O)Nc2ccc(F)cn2)CCN(c2ncnc3[nH]ccc23)CC1 [Example 60, 4-(aminomethyl)-N-(5-fluoropyridin-2-yl)-1-(7H-pyrrolo[2,3-d]pyrimidin-4-yl)piperidine-4-carboxamide]
47 | NCC1(C(=O)Nc2ccc(C(F)(F)F)cn2)CCN(c2ncnc3[nH]ccc23)CC1 [Example 61, 4-(Aminomethyl)-1-(7H-pyrrolo[2,3-d]pyrimidin-4-yl)-N-(5-(trifluoromethyl)pyridin-2-yl)piperidine-4-carboxamide]
170 | NCC1(C(=O)Nc2nc3ccccc3s2)CCN(c2ncnc3[nH]ccc23)CC1 [Example 63, 4-(Aminomethyl)-N-(benzo[d]thiazol-2-yl)-1-(7H-pyrrolo[2,3-d]pyrimidin-4-yl)piperidine-4-carboxamide]
